From ChEMBL document CHEMBL3352489, “6-Hydroxyquinolinium salts differing in the length of alkyl side-chain: synthesis and antimicrobial activity” (Bioorg Med Chem Lett, 2014)

Experiments:
[1] = tested on: Candida albicans; test: Fungicidal activity against Candida albicans ATCC 44859 after 48 hrs by modified standard CSLI M27-A2 method; assay type: functional; settings: ATCC 44859, 48 h
[2] = tested on: Escherichia coli; test: microbe, parasite or virus in culture; assay type: functional; settings: CCM 4517, 48 h
Description: Antibacterial activity against Escherichia coli CCM 4517 after 48 hrs by microdilution broth method

[3] = tested on: Candida tropicalis; test: microbe, parasite or virus in culture; assay type: functional; settings: Candida tropicalis, 156, 48 h
Description: Antifungal activity against Candida tropicalis 156 after 48 hrs by modified standard CSLI M27-A2 method

[4] = tested on: Staphylococcus epidermidis; test: microbe, parasite or virus in culture; assay type: functional; settings: H 6966/08, 24 h
Description: Antibacterial activity against Staphylococcus epidermidis H 6966/08 after 24 hrs by microdilution broth method

[5] = tested on: Trichophyton mentagrophytes; test: microbe, parasite or virus in culture; assay type: functional; settings: Trichophyton mentagrophytes, 445, 72 h
Description: Antifungal activity against Trichophyton mentagrophytes 445 after 72 hrs by modified standard CSLI M27-A2 method

[6] = tested on: Pseudomonas aeruginosa; test: microbe, parasite or virus in culture; assay type: functional; settings: CCM 1961, 120 h
Description: Antibacterial activity against Pseudomonas aeruginosa CCM 1961 after 120 hrs by microdilution broth method

[7] = tested on: Enterococcus sp.; test: microbe, parasite or virus in culture; assay type: functional; settings: J 14365/08, 24 h
Description: Antibacterial activity against Enterococcus sp. J 14365/08 after 24 hrs by microdilution broth method

[8] = tested on: Klebsiella pneumoniae; test: Bactericidal activity against Klebsiella pneumoniae J 14368/08 after 48 hrs by microdilution broth method; assay type: functional; settings: J 14368/08, 48 h, read-out: MBC>99.9
[9] = tested on: Klebsiella pneumoniae; test: microbe, parasite or virus in culture; assay type: functional; settings: J 14368/08, 48 h
Description: Antibacterial activity against Klebsiella pneumoniae J 14368/08 after 48 hrs by microdilution broth method

[10] = tested on: Pichia kudriavzevii; test: Antifungal activity against Candida krusei E28 after 48 hrs by modified standard CSLI M27-A2 method; assay type: functional; settings: E28, 48 h
[11] = tested on: Trichophyton mentagrophytes; test: Fungicidal activity against Trichophyton mentagrophytes 445 after 120 hrs by modified standard CSLI M27-A2 method; assay type: functional; settings: Trichophyton mentagrophytes, 445, 120 h
[12] = tested on: Aspergillus fumigatus; test: Fungicidal activity against Aspergillus fumigatus 231 after 48 hrs by modified standard CSLI M27-A2 method; assay type: functional; settings: Aspergillus fumigatus, 231, 48 h
[13] = tested on: Staphylococcus aureus; test: microbe, parasite or virus in culture; assay type: functional; settings: H 5996/08, 24 h
Description: Antibacterial activity against Staphylococcus aureus H 5996/08 after 24 hrs by microdilution broth method

[14] = tested on: Trichosporon asahii; test: microbe, parasite or virus in culture; assay type: functional; settings: Trichosporon asahii, 1188, 48 h
Description: Antifungal activity against Trichosporon asahii 1188 after 48 hrs by modified standard CSLI M27-A2 method

[15] = tested on: Aspergillus fumigatus; test: microbe, parasite or virus in culture; assay type: functional; settings: Aspergillus fumigatus, 231, 48 h
Description: Antifungal activity against Aspergillus fumigatus 231 after 48 hrs by modified standard CSLI M27-A2 method

[16] = tested on: Pichia kudriavzevii; test: Antifungal activity against Candida krusei E28 after 24 hrs by modified standard CSLI M27-A2 method; assay type: functional; settings: E28, 24 h
[17] = tested on: Escherichia coli; test: microbe, parasite or virus in culture; assay type: functional; settings: CCM 4517, 24 h
Description: Antibacterial activity against Escherichia coli CCM 4517 after 24 hrs by microdilution broth method

[18] = tested on: Nakaseomyces glabratus; test: Fungicidal activity against Candida glabrata 20/I after 48 hrs by modified standard CSLI M27-A2 method; assay type: functional
[19] = tested on: Staphylococcus aureus; test: microbe, parasite or virus in culture; assay type: functional; settings: CCM 4516/08, 48 h
Description: Antibacterial activity against Staphylococcus aureus CCM 4516/08 after 48 hrs by microdilution broth method

[20] = tested on: Klebsiella pneumoniae; test: microbe, parasite or virus in culture; assay type: functional; settings: J 14368/08, 24 h
Description: Antibacterial activity against Klebsiella pneumoniae J 14368/08 after 24 hrs by microdilution broth method

[21] = tested on: Lichtheimia corymbifera; test: Fungicidal activity against Absidia corymbifera 272 after 48 hrs by modified standard CSLI M27-A2 method; assay type: functional; settings: Lichtheimia corymbifera, 272, 48 h
[22] = tested on: Staphylococcus aureus; test: microbe, parasite or virus in culture; assay type: functional; settings: H 5996/08, 48 h
Description: Antibacterial activity against Staphylococcus aureus H 5996/08 after 48 hrs by microdilution broth method

[23] = tested on: Trichophyton mentagrophytes; test: microbe, parasite or virus in culture; assay type: functional; settings: Trichophyton mentagrophytes, 445, 120 h
Description: Antifungal activity against Trichophyton mentagrophytes 445 after 120 hrs by modified standard CSLI M27-A2 method

[24] = tested on: Lichtheimia corymbifera; test: microbe, parasite or virus in culture; assay type: functional; settings: Lichtheimia corymbifera, 272, 48 h
Description: Antifungal activity against Absidia corymbifera 272 after 48 hrs by modified standard CSLI M27-A2 method

[25] = tested on: Escherichia coli; test: Bactericidal activity against Escherichia coli CCM 4517 after 48 hrs by microdilution broth method; assay type: functional; settings: CCM 4517, 48 h, read-out: MBC>99.9
[26] = tested on: Aspergillus fumigatus; test: microbe, parasite or virus in culture; assay type: functional; settings: Aspergillus fumigatus, 231, 24 h
Description: Antifungal activity against Aspergillus fumigatus 231 after 24 hrs by modified standard CSLI M27-A2 method

[27] = tested on: Klebsiella pneumoniae; test: Bactericidal activity against Klebsiella pneumoniae D 11750/08 after 24 hrs by microdilution broth method; assay type: functional; settings: D 11750/08, 24 h, read-out: MBC>99.9
[28] = tested on: Trichosporon asahii; test: microbe, parasite or virus in culture; assay type: functional; settings: Trichosporon asahii, 1188, 24 h
Description: Antifungal activity against Trichosporon asahii 1188 after 24 hrs by modified standard CSLI M27-A2 method

[29] = tested on: Nakaseomyces glabratus; test: Antifungal activity against Candida glabrata 20/I after 48 hrs by modified standard CSLI M27-A2 method; assay type: functional
[30] = tested on: Pichia kudriavzevii; test: Fungicidal activity against Candida krusei E28 after 48 hrs by modified standard CSLI M27-A2 method; assay type: functional; settings: E28, 48 h
[31] = tested on: Trichosporon asahii; test: Fungicidal activity against Trichosporon asahii 1188 after 48 hrs by modified standard CSLI M27-A2 method; assay type: functional; settings: Trichosporon asahii, 1188, 48 h
[32] = tested on: Lichtheimia corymbifera; test: microbe, parasite or virus in culture; assay type: functional; settings: Lichtheimia corymbifera, 272, 24 h
Description: Antifungal activity against Absidia corymbifera 272 after 24 hrs by modified standard CSLI M27-A2 method

[33] = tested on: Enterococcus sp.; test: microbe, parasite or virus in culture; assay type: functional; settings: J 14365/08, 48 h
Description: Antibacterial activity against Enterococcus sp. J 14365/08 after 48 hrs by microdilution broth method

[34] = tested on: Staphylococcus epidermidis; test: Bactericidal activity against Staphylococcus epidermidis H 6966/08 after 48 hrs by microdilution broth method; assay type: functional; settings: H 6966/08, 48 h, read-out: MBC>99.9
[35] = tested on: Enterococcus sp.; test: Bactericidal activity against Enterococcus sp. J 14365/08 after 48 hrs by microdilution broth method; assay type: functional; settings: J 14365/08, 48 h, read-out: MBC>99.9
[36] = tested on: Pseudomonas aeruginosa; test: Bactericidal activity against Pseudomonas aeruginosa CCM 1961 after 120 hrs by microdilution broth method; assay type: functional; settings: CCM 1961, 120 h, read-out: MBC>99.9
[37] = tested on: Staphylococcus aureus; test: Bactericidal activity against Staphylococcus aureus H 5996/08 after 48 hrs by microdilution broth method; assay type: functional; settings: H 5996/08, 48 h, read-out: MBC>99.9
[38] = tested on: Nakaseomyces glabratus; test: Antifungal activity against Candida glabrata 20/I after 24 hrs by modified standard CSLI M27-A2 method; assay type: functional
[39] = tested on: Klebsiella pneumoniae; test: microbe, parasite or virus in culture; assay type: functional; settings: D 11750/08, 24 h
Description: Antibacterial activity against Klebsiella pneumoniae D 11750/08 after 24 hrs by microdilution broth method

[40] = tested on: Candida albicans; test: microbe, parasite or virus in culture; assay type: functional; settings: ATCC 44859, 48 h
Description: Antifungal activity against Candida albicans ATCC 44859 after 48 hrs by modified standard CSLI M27-A2 method

[41] = tested on: Pseudomonas aeruginosa; test: microbe, parasite or virus in culture; assay type: functional; settings: CCM 1961, 72 h
Description: Antibacterial activity against Pseudomonas aeruginosa CCM 1961 after 72 hrs by microdilution broth method

[42] = tested on: Staphylococcus aureus; test: Bactericidal activity against Staphylococcus aureus CCM 4516/08 after 48 hrs by microdilution broth method; assay type: functional; settings: CCM 4516/08, 48 h, read-out: MBC>99.9
[43] = tested on: Staphylococcus epidermidis; test: microbe, parasite or virus in culture; assay type: functional; settings: H 6966/08, 48 h
Description: Antibacterial activity against Staphylococcus epidermidis H 6966/08 after 48 hrs by microdilution broth method

[44] = tested on: Staphylococcus aureus; test: microbe, parasite or virus in culture; assay type: functional; settings: CCM 4516/08, 24 h
Description: Antibacterial activity against Staphylococcus aureus CCM 4516/08 after 24 hrs by microdilution broth method

[45] = tested on: Candida tropicalis; test: microbe, parasite or virus in culture; assay type: functional; settings: Candida tropicalis, 156, 24 h
Description: Antifungal activity against Candida tropicalis 156 after 24 hrs by modified standard CSLI M27-A2 method

[46] = tested on: Klebsiella pneumoniae; test: microbe, parasite or virus in culture; assay type: functional; settings: D 11750/08, 48 h
Description: Antibacterial activity against Klebsiella pneumoniae D 11750/08 after 48 hrs by microdilution broth method

[47] = tested on: Candida albicans; test: microbe, parasite or virus in culture; assay type: functional; settings: ATCC 44859, 24 h
Description: Antifungal activity against Candida albicans ATCC 44859 after 24 hrs by modified standard CSLI M27-A2 method

[48] = tested on: Candida tropicalis; test: Fungicidal activity against Candida tropicalis 156 after 48 hrs by modified standard CSLI M27-A2 method; assay type: functional; settings: Candida tropicalis, 156, 48 h
[49] = Cytotoxicity against CHOK1 cells after 24 hrs by MTT assay; assay type: ADME, cell-based; settings: Cricetulus griseus, CHO-K1, 24 h
[50] = Retention time of the compound by isocratic elution based HPLC method; assay type: physicochemical
[51] = Retention time of the compound by gradient elution based HPLC method; assay type: physicochemical

CCCCCCCCCCCCCC[n+]1ccccc1
MFC [1]: 125 µM
MIC95 [2]: 7.81 µM
MIC [3]: 1.95 µM
MIC95 [4]: 0.49 µM
MIC [5]: 15.6 µM
MIC95 [6]: 125 µM
MIC95 [7]: 1.95 µM
MBC [8]: 7.81 µM
MIC95 [9]: 7.81 µM
MIC [10]: 0.98 µM
MFC [11]: 31.2 µM
MFC [12]: 250 µM
MIC95 [13]: 3.91 µM
MIC [14]: 31.2 µM
MIC [15]: 31.2 µM
MIC [16]: 0.98 µM
MIC95 [17]: 7.81 µM
MFC [18]: 250 µM
MIC95 [19]: 0.98 µM
MIC95 [20]: 7.81 µM
MFC [21]: 250 µM
MIC95 [22]: 3.91 µM
MIC [23]: 15.6 µM
MIC [24]: 125 µM
MBC [25]: 7.81 µM
MIC [26]: 15.6 µM
MBC [27]: 15.6 µM
MIC [28]: 31.2 µM
MIC [29]: 1.95 µM
MFC [30]: 250 µM
MFC [31]: 250 µM
MIC [32]: 125 µM
MIC95 [33]: 1.95 µM
MBC [34]: 0.49 µM
MBC [35]: 15.6 µM
MBC [36]: 125 µM
MBC [37]: 3.91 µM
MIC [38]: 1.95 µM
MIC95 [39]: 15.6 µM
MIC [40]: 7.81 µM
MIC95 [41]: 125 µM
MBC [42]: 3.91 µM
MIC95 [43]: 0.49 µM
MIC95 [44]: 0.98 µM
MIC [45]: 1.95 µM
MIC95 [46]: 15.6 µM
MIC [47]: 7.81 µM
MFC [48]: 250 µM
IC50 [49]: 25 µM

CCCCCCCCCC[n+]1cccc2cc(O)ccc21.[Br-]
Retention_time [50]: 0.65 min
Retention_time [51]: 8.64 min

CCCCCCCCCCCCCC[n+]1cccc2cc(O)ccc21.[Br-]
MFC [1]: 15.6 µM
MIC95 [2]: 31.2 µM
MIC [3]: 15.6 µM
MIC95 [4]: 0.98 µM
MIC [5]: 7.81 µM
MIC95 [6]: 250 µM
MIC95 [7]: 1.95 µM
MBC [8]: 62.5 µM
MIC95 [9]: 31.2 µM
MIC [10]: 7.81 µM
MFC [11]: 15.6 µM
MFC [12]: 250 µM
MIC95 [13]: 7.81 µM
MIC [14]: 31.2 µM
MIC [15]: 31.2 µM
MIC [16]: 7.81 µM
MIC95 [17]: 31.2 µM
MFC [18]: 15.6 µM
MIC95 [19]: 1.95 µM
MIC95 [20]: 31.2 µM
MFC [21]: 125 µM
MIC95 [22]: 7.81 µM
MIC [23]: 7.81 µM
MIC [24]: 31.2 µM
MBC [25]: 62.5 µM
MIC [26]: 15.6 µM
MBC [27]: 62.5 µM
MIC [28]: 15.6 µM
MIC [29]: 3.91 µM
MFC [30]: 7.81 µM
MFC [31]: 31.2 µM
MIC [32]: 31.2 µM
MIC95 [33]: 1.95 µM
MBC [34]: 3.91 µM
MBC [35]: 15.6 µM
MBC [36]: 250 µM
MBC [37]: 15.6 µM
MIC [38]: 3.91 µM
Retention_time [50]: 1.65 min
MIC95 [39]: 62.5 µM
MIC [40]: 15.6 µM
MIC95 [41]: 125 µM
MBC [42]: 7.81 µM
MIC95 [43]: 0.98 µM
MIC95 [44]: 1.95 µM
MIC [45]: 15.6 µM
MIC95 [46]: 62.5 µM
MIC [47]: 7.81 µM
MFC [48]: 15.6 µM
IC50 [49]: 32 µM
Retention_time [51]: 10.05 min

CCCCCCCCCCCCCCCCCC[n+]1cccc2cc(O)ccc21.[Br-]
Retention_time [50]: 7.06 min
Retention_time [51]: 11.47 min

CCCCCCCCCCCC[n+]1ccccc1
MFC [1]: 1.95 µM
MIC95 [2]: 3.91 µM
MIC [3]: 1.95 µM
MIC95 [4]: 0.98 µM
MIC [5]: 1.95 µM
MIC95 [6]: 7.81 µM
MIC95 [7]: 1.95 µM
MBC [8]: 7.81 µM
MIC95 [9]: 7.81 µM
MIC [10]: 0.49 µM
MFC [11]: 3.91 µM
MFC [12]: 31.2 µM
MIC95 [13]: 3.91 µM
MIC [14]: 15.6 µM
MIC [15]: 31.2 µM
MIC [16]: 0.49 µM
MIC95 [17]: 1.95 µM
MFC [18]: 0.49 µM
MIC95 [19]: 1.95 µM
MIC95 [20]: 7.81 µM
MFC [21]: 250 µM
MIC95 [22]: 3.91 µM
MIC [23]: 3.91 µM
MIC [24]: 125 µM
MBC [25]: 3.91 µM
MIC [26]: 3.91 µM
MBC [27]: 7.81 µM
MIC [28]: 7.81 µM
MIC [29]: 0.49 µM
MFC [30]: 0.49 µM
MFC [31]: 15.6 µM
MIC [32]: 62.5 µM
MIC95 [33]: 3.91 µM
MBC [34]: 3.91 µM
MBC [35]: 3.91 µM
MBC [36]: 7.81 µM
MBC [37]: 3.91 µM
MIC [38]: 0.49 µM
MIC95 [39]: 3.91 µM
MIC [40]: 1.95 µM
MIC95 [41]: 7.81 µM
MBC [42]: 1.95 µM
MIC95 [43]: 3.91 µM
MIC95 [44]: 0.49 µM
MIC [45]: 0.49 µM
MIC95 [46]: 7.81 µM
MIC [47]: 0.98 µM
MFC [48]: 3.91 µM
IC50 [49]: 39 µM
